{"source": "paper PMC12165799", "about": "“Antimicrobial peptide developed with machine learning sequence optimization targets drug resistant Staphylococcus aureus in mice” (The Journal of Clinical Investigation, 2025)", "key": {"[1]": {"test_system": "S. aureus MW2 (MRSA) exponential and persister cells", "experiment": "S. aureus persister cell and time-kill assays (MW2)", "format": "cell-based, Staphylococcus aureus", "conditions": "within 120 minutes; ciprofloxacin 10 μg/mL, bithionol 10 μg/mL", "description": "(§1) 305 Minimal inhibitory concentration (MIC) assay\n(§2) We made serial dilutions of 10×\n(§3) We determined the MIC using OD600\n(§4) Accordingly, we added 150 mM NaCl,\n(§5) 319 established protocol (5).\n(§6) 323 aureus VRS1) in PBS. To assess the killing kinetics of CIT-8 in persister cells, we added 1 ml of\n(§7) 324 cell suspension to the wells of a 2-ml deep-well assay block (Cat no. 3960, Corning, NY, USA)\n(§8) We also included ciprofloxacin (at 10 μg/ml) for S.\n(§9) 326 aureus MW2 and linezolid (100 μg/ml) for S. aureus VRS1 as antibiotic controls. Additionally,\n(§10) 327 we included bithionol (at 10 μg/ml) as a positive control, known for its ability to kill stationary\n(§11) 328 phase persister cells (6). We incubated the plates at 37°C, with shaking at 225 rpm. At specific\n(§12) 329 times (0, 15, 30, 60, and 120 min), we collected 10 μl samples, diluted them serially, and then\n(§13) 330 plated them on tryptic soy agar (TSA) (BD Difco, NJ, USA) plates. We incubated the TSA plates\n(§14) 331 for 18 hours at 37°C for colony counting. We performed these experiments in duplicate. As a\n(§15) 332 comparison, we prepared the exponential cells of S. aureus MW2 and VRS1 in PBS and analyzed\n(§16) 333 their killing kinetics in the same manner as described for persister cells."}, "[2]": {"test_system": "S. aureus JE2", "parameters": "method as in PMID 31336137", "conditions": "S. aureus JE2 (USA300 isolate); cited from earlier work", "excerpt": "In MRSA, antimicrobial resistance is linked to life-threatening infections, such as pneumonia, sepsis, and endocarditis ([48]). The situation is further complicated by the presence of S. aureus bacteria in alternative physiological states such as biofilms and persister cells, which are often neglected in early antimicrobial drug discovery stages even though they contribute substantially to chronic, relapsing infections ([49])."}, "[3]": {"test_system": "S. aureus VRS1 (VRSA) exponential and persister cells", "experiment": "S. aureus persister cell and time-kill assays (VRS1)", "format": "cell-based, Staphylococcus aureus", "conditions": "for Reduction of VRSA persister cells / Reduction of exponentially growing VRSA: within 120 minutes, bithionol 10 μg/mL, linezolid 100 μg/mL", "description": "as §1, §2, §3, §4, §5, §6, §7, §8, §9, §10, §11, §12, §13, §14, §15, §16"}, "[4]": {"test_system": "MRSA (S. aureus MW2) biofilm", "experiment": "Biofilm viability assay on solid support (MW2)", "format": "cell-based, Staphylococcus aureus", "conditions": "40 μg/mL, 24 h established biofilm"}, "[5]": {"test_system": "VRSA (S. aureus VRS1) biofilm", "experiment": "Biofilm viability assay on solid support (VRS1)", "format": "cell-based, Staphylococcus aureus", "conditions": "40 μg/mL, 24 h established biofilm"}, "[6]": {"test_system": "S. aureus MW2 biofilm formation", "conditions": "crystal violet, 24 h", "description": "349 Prevention of S. aureus MW2 biofilm formation\n350 We evaluated the ability of the citropin 1.1-derived peptides to inhibit biofilm formation\n351 following an established protocol with modifications (5). In short, we prepared exponential\n352 cultures of S. aureus MW2 (adjusted to OD600 = 0.01) in TSB medium (supplemented with 0.2%\n353 glucose) from overnight cultures. We added 90 µl of the bacterial culture to 10 µl of serially diluted\n354 10× peptide solution in flat-bottomed 96-well polystyrene microtiter plates (Cat no. Corning 3595,\n(§17) We used TSB medium containing\n(§18) 356 bacteria with water as the positive control, while TSB media with sterile water served as the\n(§19) 357 negative control. After incubation, we carefully removed the TSB medium and washed the wells\n(§20) 358 with PBS (Gibco, MD, USA) to remove loosely attached planktonic cells. We quantified the\n(§21) 359 biomass by staining the biofilms with crystal violet following an established protocol and\n(§22) 360 quantitated the concentration of peptide that inhibits 50% of biofilm formation (MBIC50)(8). We\n(§23) 361 measured the live cell count of the biofilms using XTT dye [2,3-bis(2-methyloxy-4-nitro-5-\n362 sulfophenyl)-2H-tertazolium-5-carboxanilide] (ATCC, VA, USA)."}, "[7]": {"test_system": "S. aureus MW2 24 h established biofilm", "conditions": "crystal violet, 24 h established biofilm, 24 h treatment", "description": "346 plated onto TSA plates, and incubated plates at 37°C overnight. The next day, we counted the\n347 viable bacterial colonies.\nas §17, §18, §19, §20, §21, §22, §23\n362 sulfophenyl)-2H-tertazolium-5-carboxanilide] (ATCC, VA, USA). We calculated the percentage\n363 of biofilm growth by normalizing to biofilm growth in wells containing bacteria without peptide\n366 Disruption of S. aureus MW2 established biofilms\n367 We evaluated the ability of the citropin 1.1-derived peptides to disrupt established biofilms\n368 following an established protocol with modifications (5). We prepared exponential cultures of S.\n369 aureus MW2 (adjusted to 1 × 10^6 CFU/ml) in TSB medium (supplemented with 0.2% glucose)\n370 from overnight grown cultures. We added 100 µl of bacterial culture to flat-bottomed 96-well\n371 polystyrene microtiter plates (Cat no. 3595, Corning, NY, USA). We then incubated the plates at\n372 37°C for 24 hours in static conditions to allow biofilm formation. After incubation, we carefully\n373 pipetted out the TSB medium and washed the wells with PBS (Gibco, MD, USA) to remove\n374 loosely attached planktonic cells. We treated the established biofilms in each well with 10 µl of\n375 serially diluted 10× peptide solution, followed by the addition of 90 μl TSB medium\n376 (supplemented with 0.2% glucose). We incubated the plates for another 24 h at 37°C before\n377 processing biomass and live-cell contents. We calculated the concentration of peptide that disrupts\n378 50% of established biofilms (MBEC50)."}, "[8]": {"test_system": "S. aureus MW2 membrane", "experiment": "Propidium iodide-based membrane permeability", "format": "cell-based, Staphylococcus aureus", "conditions": "S. aureus MW2, 60 minutes", "description": "484 min at room temperature in the dark based on a previously established protocol (8). We added 90\n485 µl of the dye/bacteria mixture to 10 μl of serially diluted 10× peptide concentration in black, 96-\n486 well plates (Cat. no. 3904, Corning, NY, USA) and incubated the plates for 1 hour at room\n487 temperature. We measured the fluorescence with excitation and emission wavelengths of 485 nm\n488 and 525 nm, respectively in endpoint assay mode using a SpectraMax i3x (Molecular Devices,\n489 CA, USA) fluorescence reader.\n490 Propidium iodide-based membrane permeability\n491 We used a propidium iodide (Thermo Fisher Scientific, MA, USA) fluorescence-based\n492 bacterial permeation assay to establish membrane-oriented interactions with the designed peptides\n493 based on a previously established protocol (8). We prepared exponential phase S. aureus MW2\n494 bacteria and diluted to OD600 = 0.4 in PBS. We added PI dye (final concentration = 2 µM) to the\n495 bacteria in 1:10 serial dilutions in black, 96-well plates (Cat. no. 3904, Corning, NY, USA) and\n496 incubated the plates for 1 hour at room temperature. We then measured the fluorescence with an\n497 excitation wavelength of 584 nm and an emission wavelength of 620 nm in endpoint assay mode\n498 using a SpectraMax i3x (Molecular Devices, CA, USA) fluorescence reader.\n501 To determine the ATP leakage potential of the peptides, we employed a luciferase-based\n502 assay(18). In brief, we washed exponential phase of S. aureus MW2 bacteria three times with PBS\n503 (pH 7.4) and adjusted the washed cells to OD600 = 0.4 in PBS. Following treatment of the bacteria\n504 with 32 µg/ml of CIT-8 peptide at 37°C for 30 min, we centrifuged the cells at 14,000× g for 5\n505 min. We transferred 50 µl of each supernatant fraction to black, clear-bottom, 96-well plates"}, "[9]": {"test_system": "S. aureus MW2", "experiment": "Minimal inhibitory concentration (MIC) assay, broth microdilution", "format": "cell-based, Staphylococcus aureus", "conditions": "S. aureus MW2; broth microdilution, TSB, 1 × 10^6 CFU/ml, 37°C 18 h, OD600, duplicate", "description": "300 Synthesis of peptides\n302 Piscataway, NJ, USA).\nas §1, §2, §3, §4, §5"}, "[10]": {"experiment": "HPLC retention time on C18 reverse-phase column", "format": "physicochemical", "excerpt": "Table 1 Physical parameters and minimal inhibitory concentrations of citropin 1.1-derived peptides against S. aureus MW2 | column: rT^D (min)"}}, "data": [{"molecule": "O=C(O)c1cn(C2CC2)c2cc(N3CCNCC3)c(F)cc2c1=O", "note": "[Ciprofloxacin]", "values": [{"measurement": "Reduction of MRSA persister cells", "setting": "[1]", "result": "did not have any effect"}]}, {"molecule": "citropin 1.1", "values": [{"measurement": "MIC", "setting": "[2]", "result": 32, "unit": "µg/mL"}]}, {"molecule": "CC[C@H](C)[C@H](NC(=O)CN)C(=O)NCC(=O)N[C@@H](C)C(=O)N[C@H](C(=O)N[C@@H](CC(C)C)C(=O)N[C@@H](CCCCN)C(=O)N[C@H](C(=O)N[C@@H](CC(C)C)C(=O)N[C@H](C(=O)N[C@H](C(=O)NCC(=O)N[C@@H](CC(C)C)C(=O)N1CCC[C@H]1C(=O)N[C@@H](C)C(=O)N[C@@H](CC(C)C)C(=O)N[C@H](C(=O)N[C@@H](CO)C(=O)N[C@@H](Cc1c[nH]c2ccccc12)C(=O)N[C@H](C(=O)N[C@@H](CCCCN)C(=O)N[C@@H](CCCNC(=N)N)C(=O)N[C@@H](CCCCN)C(=O)N[C@@H](CCCNC(=N)N)C(=O)N[C@@H](CCC(N)=O)C(=O)N[C@@H](CCC(N)=O)C(N)=O)[C@@H](C)CC)[C@@H](C)CC)[C@@H](C)O)[C@@H](C)O)C(C)C)C(C)C", "note": "[melittin, reference compound]", "values": [{"measurement": "Time to elimination of exponential and persister cells of VRSA", "setting": "[3]; approximately 1 × 10^7 CFU", "result": "≤ 120", "unit": "min"}, {"measurement": "Reduction of MRSA biofilm burden on solid membrane", "setting": "[4]", "result": 1.85, "unit": "logs"}, {"measurement": "Reduction of VRSA biofilm burden on solid membrane", "setting": "[5]", "result": 3.9, "unit": "logs"}, {"measurement": "MBIC50 (biomass reduced by 50%)", "setting": "[6]", "result": 4.8, "unit": "µg/mL"}, {"measurement": "MBEC50 (50% of biomass disrupted)", "setting": "[7]", "result": 2.3, "unit": "µg/mL"}, {"measurement": "Propidium iodide fluorescence (membrane permeation)", "setting": "[8]", "result": "elevated fluorescence levels"}]}, {"molecule": "Oc1c(Cl)cc(Cl)cc1Sc1cc(Cl)cc(Cl)c1O", "note": "[bithionol]", "values": [{"measurement": "Reduction of MRSA persister cells", "setting": "[1]", "result": 1.5, "unit": "logs"}, {"measurement": "Reduction of VRSA persister cells", "setting": "[3]", "result": 1.5, "unit": "logs"}, {"measurement": "Reduction of exponentially growing VRSA", "setting": "[3]", "result": 1.0, "unit": "logs"}]}, {"molecule": "CC(=O)NC[C@H]1CN(c2ccc(N3CCOCC3)c(F)c2)C(=O)O1", "note": "[linezolid]", "values": [{"measurement": "Reduction of VRSA persister cells", "setting": "[3]", "result": "no impact"}, {"measurement": "Reduction of exponentially growing VRSA", "setting": "[3]", "result": 0.7, "unit": "logs"}]}, {"molecule": "H-GLFSVIKKLLSVI-NH2 [CIT-6]", "values": [{"measurement": "MIC SA", "setting": "[9]", "result": 2, "unit": "µg/mL"}, {"measurement": "rT (HPLC retention time)", "setting": "[10]", "result": 23.302, "unit": "min"}]}]}
